Measurements taken from ChEMBL document CHEMBL1201862, “PubChem BioAssay data set” (2004).
Activity calls are given as the source filed them.

Columns and labels:
[1] = Luminescence Cell-Based Dose Retest to Confirm Inhibitors of Cancer Stem Cells. [Related pubchem assays (depositor defined):AID2717, AID2721]; format: functional; details: Homo sapiens
[2] = inhibitors of SNCA 5'UTR-driven reporter translation, confirmation, H4 neuroglioma cells, luminescence (AID 1988); format: functional, cell-based
[3] = molecular target: T1, Streptokinase A (Streptococcus pyogenes serotype M1, UniProt P10520); assay: S. pyogenes streptokinase expression inhibitors, potency, dose response, plasminogen activation absorbance, OD405 (AID 1914); format: functional, Streptococcus pyogenes M1 GAS;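 further: secreted streptokinase activity via plasminogen activation per viability signal from cell pellet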
T1 sequence (P10520 whole entry): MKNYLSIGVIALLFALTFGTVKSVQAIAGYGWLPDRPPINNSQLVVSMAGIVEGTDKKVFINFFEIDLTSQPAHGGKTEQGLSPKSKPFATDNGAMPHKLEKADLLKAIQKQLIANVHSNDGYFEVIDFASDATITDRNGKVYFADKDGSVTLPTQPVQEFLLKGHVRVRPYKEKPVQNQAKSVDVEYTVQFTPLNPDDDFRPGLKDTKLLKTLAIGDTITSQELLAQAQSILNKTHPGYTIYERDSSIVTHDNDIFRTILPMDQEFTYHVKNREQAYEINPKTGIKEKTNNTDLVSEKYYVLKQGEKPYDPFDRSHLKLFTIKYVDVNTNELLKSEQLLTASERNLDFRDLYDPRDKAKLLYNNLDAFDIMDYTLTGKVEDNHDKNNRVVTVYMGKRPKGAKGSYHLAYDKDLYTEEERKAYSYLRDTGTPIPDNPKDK

[4] = system: Streptococcus sp. 'group A'; assay: growth inhibition of control SK(-) GAS strain, dose response, counter-screen for streptokinase expression inhibitor project, luminescence, kanamycin, BacTiterGlo, confirmation (AID 1900); format: functional, organism-based
[5] = Luminescence Cell-Based Dose Response HTS to Identify Inhibitors of 5'UTR Stem-Loop Driven Prion Protein mRNA Translation in H4 Neuroglioblastoma Cells. [Related pubchem assays: 1827 (Project Summary), 1813 (Primary HTS)]; format: functional
[6] = system: INS1; assay: beta cell apoptosis inhibitors, cytokine rescue, dose response, luminescence, retest (AID 449756); format: functional, cell-based; details: Rattus norvegicus;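 further: cell death triggered by IL-1 beta plus TNF-alpha plus IFN-gamma mixture; protective hits raise ATP signal compared with cytokine alone wells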
[7] = inhibitors of firefly luciferase expression or activity, dose response, H4 neuroglioma cells, luminescence (AID 1990); format: functional, cell-based
[8] = system: Streptococcus; assay: Group A Streptococcus viability loss, dose response, counter-screen for streptokinase expression inhibitor project, luminescence, BacTiterGlo (AID 1915); format: functional, organism-based;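 further: potency for reduction of bacterial viability or growth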
[9] = molecular target: Cytochrome P450 2D6 (Homo sapiens, UniProt P10635);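 further: CYP2D6 member of a cytochrome P450 panel assay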
Chain of Cytochrome P450 2D6 (P10635 whole entry): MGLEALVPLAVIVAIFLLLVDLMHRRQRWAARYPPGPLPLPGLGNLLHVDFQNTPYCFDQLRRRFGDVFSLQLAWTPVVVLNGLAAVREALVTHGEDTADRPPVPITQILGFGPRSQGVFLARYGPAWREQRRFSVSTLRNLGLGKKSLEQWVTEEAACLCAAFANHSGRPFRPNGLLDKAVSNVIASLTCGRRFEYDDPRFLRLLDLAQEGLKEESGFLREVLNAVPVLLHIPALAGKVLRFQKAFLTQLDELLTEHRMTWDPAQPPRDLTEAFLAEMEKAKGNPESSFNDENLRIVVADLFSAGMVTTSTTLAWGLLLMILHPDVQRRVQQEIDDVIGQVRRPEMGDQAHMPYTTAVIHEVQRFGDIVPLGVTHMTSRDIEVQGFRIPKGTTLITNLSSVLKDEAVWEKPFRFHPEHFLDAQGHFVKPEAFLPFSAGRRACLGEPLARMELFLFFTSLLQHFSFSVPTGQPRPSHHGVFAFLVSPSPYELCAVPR

[10] = molecular target: Cytochrome P450 2C19 (Homo sapiens, UniProt P33261); assay: Cytochrome panel assay with activity outcomes. Panel member name: p450-cyp2c19 Compounds with AC50 equal or less than 10 uM are considered active; format: functional; details: read-out: AC50
Chain of Cytochrome P450 2C19 (P33261 whole entry): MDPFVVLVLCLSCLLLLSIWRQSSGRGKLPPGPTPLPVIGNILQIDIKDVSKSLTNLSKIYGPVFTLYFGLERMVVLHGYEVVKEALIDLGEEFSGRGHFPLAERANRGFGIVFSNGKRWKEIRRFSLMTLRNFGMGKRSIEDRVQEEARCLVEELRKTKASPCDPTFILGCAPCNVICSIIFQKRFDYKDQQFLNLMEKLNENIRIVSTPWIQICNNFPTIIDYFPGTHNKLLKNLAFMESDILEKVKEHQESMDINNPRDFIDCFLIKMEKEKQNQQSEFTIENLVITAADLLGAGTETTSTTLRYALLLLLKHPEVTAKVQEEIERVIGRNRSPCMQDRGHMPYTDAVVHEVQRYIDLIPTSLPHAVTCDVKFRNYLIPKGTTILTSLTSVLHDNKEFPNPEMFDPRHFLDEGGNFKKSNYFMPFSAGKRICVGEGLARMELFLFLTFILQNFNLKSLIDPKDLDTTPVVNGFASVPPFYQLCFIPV

[11] = molecular target: Cytochrome P450 3A4 (Homo sapiens, UniProt P08684);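 further: CYP3A4 tested as one member of a cytochrome P450 panel screen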
Chain of Cytochrome P450 3A4 (P08684 whole entry): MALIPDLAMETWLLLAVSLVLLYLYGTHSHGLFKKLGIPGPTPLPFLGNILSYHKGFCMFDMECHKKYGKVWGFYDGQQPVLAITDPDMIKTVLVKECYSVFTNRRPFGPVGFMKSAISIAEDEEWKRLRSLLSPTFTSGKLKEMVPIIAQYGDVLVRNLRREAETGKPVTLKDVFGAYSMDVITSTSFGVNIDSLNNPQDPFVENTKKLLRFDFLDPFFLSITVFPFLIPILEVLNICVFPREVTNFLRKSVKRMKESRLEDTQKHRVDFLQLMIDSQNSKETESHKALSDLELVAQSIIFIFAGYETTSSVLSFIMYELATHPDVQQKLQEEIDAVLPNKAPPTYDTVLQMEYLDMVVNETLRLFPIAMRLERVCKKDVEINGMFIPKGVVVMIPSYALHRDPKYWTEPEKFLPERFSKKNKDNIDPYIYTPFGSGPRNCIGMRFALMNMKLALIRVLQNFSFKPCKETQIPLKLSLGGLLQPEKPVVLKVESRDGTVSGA

[12] = molecular target: T2, Cytochrome P450 1A2 (Homo sapiens, UniProt P05177);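 further: PubChem cytochrome P450 panel assay, CYP1A2 panel member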
T2 sequence (P05177 whole entry): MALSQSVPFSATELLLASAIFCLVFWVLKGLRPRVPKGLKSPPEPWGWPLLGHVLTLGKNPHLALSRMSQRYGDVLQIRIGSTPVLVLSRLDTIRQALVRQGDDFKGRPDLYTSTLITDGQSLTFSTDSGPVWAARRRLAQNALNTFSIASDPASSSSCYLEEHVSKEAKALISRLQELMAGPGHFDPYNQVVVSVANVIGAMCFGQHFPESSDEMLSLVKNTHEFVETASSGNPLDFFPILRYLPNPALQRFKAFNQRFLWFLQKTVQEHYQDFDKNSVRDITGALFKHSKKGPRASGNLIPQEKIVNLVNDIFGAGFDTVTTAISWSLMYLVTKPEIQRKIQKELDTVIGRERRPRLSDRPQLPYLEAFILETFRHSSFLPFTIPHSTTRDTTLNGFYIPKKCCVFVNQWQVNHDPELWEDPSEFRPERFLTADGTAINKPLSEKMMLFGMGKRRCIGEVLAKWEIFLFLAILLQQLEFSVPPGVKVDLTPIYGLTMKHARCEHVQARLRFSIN

[13] = molecular target: Cytochrome P450 2C9 (Homo sapiens, UniProt P11712)
Chain of Cytochrome P450 2C9 (P11712 whole entry): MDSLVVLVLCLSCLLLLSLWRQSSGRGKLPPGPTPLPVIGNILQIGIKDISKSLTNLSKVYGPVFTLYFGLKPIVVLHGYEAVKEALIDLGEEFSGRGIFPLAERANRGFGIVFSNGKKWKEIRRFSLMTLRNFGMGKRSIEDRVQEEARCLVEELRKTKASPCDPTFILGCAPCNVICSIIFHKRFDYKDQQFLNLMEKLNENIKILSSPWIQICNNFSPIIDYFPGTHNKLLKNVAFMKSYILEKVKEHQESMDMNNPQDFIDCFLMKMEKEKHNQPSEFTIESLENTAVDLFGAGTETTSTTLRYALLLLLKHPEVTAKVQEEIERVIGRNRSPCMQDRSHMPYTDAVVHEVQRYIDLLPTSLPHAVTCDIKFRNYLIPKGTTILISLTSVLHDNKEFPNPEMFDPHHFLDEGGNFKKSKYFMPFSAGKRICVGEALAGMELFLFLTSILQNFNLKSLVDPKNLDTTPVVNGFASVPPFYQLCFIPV

[14] = cytotoxicity toward NIH3T3 fibroblasts, dose response, counter-screen, cell-based, ATP luminescence, mouse fibroblasts (AID 2010); format: functional;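 further: cells exposed to compound for about 90 hours before reading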
[15] = inhibitors of intracellular T. cruzi replication, confirmation, NIH3T3 host cells, beta-gal luminescence (AID 2044); format: functional, cell-based;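 further: intracellular parasites grown in NIH/3T3 mouse fibroblasts as host cells; luminescent beta-galactosidase reporter signal from transgenic T. cruzi replicating inside host cells; inhibitors lower the luminescence signal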

Compound: CCCOc1c(Cl)cc(C(=O)Nc2ccc3c(c2)OCO3)cc1OCC
- AC50 [1]: 2.39 µM (active)

Compound: O=C(CCC(=O)Nc1ccc(Br)cc1)N/N=C/c1ccccc1O
- EC50 [2]: 8.55 µM (active)
- EC50 [3]: > 150 µM (not active)
- EC50 [4]: 5.1 µM (active)
- EC50 [5]: 33.8 µM (active)
- AC50 [6]: 3.65 µM (active)
- EC50 [7]: 12.6 µM (active)
- EC50 [8]: 14.3 µM (active)

Compound: CCN(Cc1ccccc1)c1ccc(/C=N/NC(=S)NC(C)C)cc1
- AC50 [1]: 31.1 µM (active)

Compound: O=C(NCCN1CCCC1)C1(S(=O)(=O)c2ccc(Cl)cc2)CC1
- AC50 [9]: 12.6 µM (inconclusive)
- AC50 [10]: 25.1 µM (inconclusive)
- AC50 [11]: 39.8 µM (inconclusive)

Compound: O=C(Nc1cccc(F)c1)N1CC[C@@]2(CCCN(S(=O)(=O)c3ccccc3)C2)C1
- AC50 [9]: 39.8 µM (inconclusive)
- AC50 [12]: 15.8 µM (inconclusive)

Compound: CCCN1CC[C@@H]2c3cc(O)ccc3CC[C@H]21
- AC50 [9]: 31.6 µM (inconclusive)

Compound: N#Cc1c(NC(=O)Cn2c(=O)oc3ccccc32)oc(-c2ccccc2)c1-c1ccccc1
- AC50 [1]: 1.97 µM (active)

Compound: Cc1nnc(NC(=O)c2ccc(S(=O)(=O)N3CC(C)CC(C)C3)cc2)o1 (stereo unspecified)
- EC50 [3]: > 150 µM (not active)
- EC50 [4]: 7.28 µM (active)
- EC50 [8]: 21 µM (active)

Compound: Cn1cccc1C1C=C(c2ccc(C(C)(C)C)cc2)Nc2ncnn21 (stereo unspecified)
- AC50 [6]: 3.45 µM (active)

Compound: COc1cccc(C(=O)Nc2nnc(-c3cccs3)o2)c1
- EC50 [3]: > 150 µM (not active)
- EC50 [4]: 9.25 µM (active)
- EC50 [8]: 18.9 µM (active)

Compound: O=C(O)/C=C\C=C/c1ccc2c(c1)OCO2
- AC50 [12]: 1.58 µM (inconclusive)

Compound: Oc1c(Cl)cc(CN(Cc2cc(Cl)c(O)c(Cl)c2)C2CCCCC2)cc1Cl
- AC50 [9]: 5.01 µM (inconclusive)
- AC50 [13]: 3.98 µM (inconclusive)

Compound: C[C@@H](CN1CCC(Cc2ccccc2)CC1)[C@@H](O)c1ccc(O)cc1
- AC50 [12]: 39.8 µM (inconclusive)

Compound: CC(CNC(=O)c1ccc(OC2CCN(Cc3ccccn3)CC2)cc1)Oc1cccnc1 (stereo unspecified)
- AC50 [6]: 5.59 µM (active)

Compound: Cc1sc2ncnc(SCC(=O)N3CCCC(C(F)(F)F)C3)c2c1C (stereo unspecified)
- EC50 [3]: > 150 µM (not active)
- EC50 [4]: > 150 µM (not active)
- EC50 [8]: > 150 µM (not active)

Compound: CCN(CC)C(=O)CSc1nnc(-c2ccncc2)n1N
- AC50 [9]: 17.8 µM (inconclusive)
- AC50 [13]: 31.6 µM (inconclusive)

Compound: Cc1ccc(NC(=O)Nc2cccc([N+](=O)[O-])c2)cc1F
- EC50 [14]: > 60 µM (not active)
- EC50 [15]: 2.49 µM (active)
- AC50 [6]: 6.65 µM (active)

Compound: COC(=O)c1ccc(NC(=O)c2cccnc2)cc1
- AC50 [6]: 5.28 µM (active)

Compound: C=CCC[C@H](Cc1ccc(F)cc1)C(=O)O[C@H](CNC(=O)[C@@H](CC=C)CC(=O)N(CCO)Cc1ccccc1)c1ccccc1
- AC50 [1]: 7.34 µM (active)

Compound: COc1ccc(/C=C(/C#N)C(=O)Nc2cc(C)ccc2C)cc1C(=O)O
- AC50 [9]: 25.1 µM (inconclusive)

Compound: Nc1c(Cl)cc(-c2csc(N3CCCC3c3nc4cc(Cl)c(Cl)cc4n3CCOCCO)n2)cc1Cl (stereo unspecified)
- EC50 [3]: > 150 µM (not active)
- EC50 [4]: > 150 µM (not active)
- EC50 [8]: > 150 µM (not active)

Compound: Cc1ccccc1C(=O)N=c1nc(S)ss1
- EC50 [3]: 2.04 µM (active)
- EC50 [4]: 2.81 µM (active)
- EC50 [8]: 36.5 µM (active)

Compound: Cc1ccc(O)c(C(=O)c2cc(C#N)c(=O)n(-c3c(C)n(C)n(-c4ccccc4)c3=O)c2)c1
- AC50 [9]: 10 µM (inconclusive)
